# Source: US8735140B2, “Preservation and composition of bioprocess algae for production of lipids, seedstock, and feed” (Kuehnle AgroSystems, Inc., priority 2008, dated 2014)
# What was measured:
# Assay type in all cases: cell-based
# Chlorella (KAS503) = test: Trehalose preservation, storage as liquid in sponge matrix
# Procedure: (§1) Flask cultures (40 ml) of cells are grown to mid-log phase with a density between 3×10^6 and 3×10^7 cells/ml, and are centrifuged. Culture medium is removed after centrifugation, resulting in more concentrated algae cells. Cells are then re-suspended in fresh medium and left overnight. Cells are centrifuged again the next day in order to remove the medium, and are then re-suspended in fresh or salt water without any nutrient. The cell density of the suspension is determined prior to storage under the various treatments. Cells in 40 ml flask cultures are grown to mid-log phase with a density of between 3×10^6 and 3×10^7 cells/ml, and are centrifuged. Culture medium is removed after centrifugation, resulting in more concentrated algae cells. Cells are then re-suspended in ideal glass solution consisting of fresh culture medium and trehalose at a concentration of 0.1M, 0.3M, and 0.5M (dihydrate trehalose 100 from Hayashibara Co. Ltd, Okayama, Japan), respectively, and left overnight with mild agitation. Cells are centrifuged again to remove the ideal glass solution the next day, and are re-suspended in fresh or salt water without any nutrient. The cell density of the resulting suspension is determined prior to storage under the various treatments. (Some cells were also treated with a 0.5M sorbitol solution). In one specific embodiment, non-toxic sponges made of polyurethane matrix ([…]-plugs® from Jaece Industries, Fisher Scientific 14-127-40B), 20 mm in diameter, are cut in half length-wise to fit the wells in the BD Falcon 12-well tissue culture plates and autoclave sterilized. One sponge is placed in each well of the tissue culture plate. 2.0 ml algae cell suspension is pipetted into each well, and the sponge is squeezed with sterile forceps to produce a faster uptake of the cell suspension into the sponge. Plates are subsequently closed and placed under low light and at ambient temperature. After stored under the above preservation conditions for 5 months, algae cells can be rejuvenated by squeezing the sponges with sterile forceps to allow a complete uptake of all cells in the suspension, including those cells not in the sponge such as cells remaining in the well. Cells in the sponges are then removed from the 12-well plates and placed in 10 ml of fresh medium under light. Cell viability is determined by comparing the cell growth in control set with the experimental set. Specifically, cell counts are performed on all samples. The averaged density value (in cells per ml) for all the cultures after treatment is defined as “rejuvenation cell count.” In some samples, the percent recovery of cells immediately after storage is also determined. The formulae are illustrated as follows: Growth=(rejuvenation cell count)/(initial cell count) Cell recovery after storage=(cell density after storage)/(initial cell density), with controls set at 100% cell recovery. Viability after storage and rejuvenation in nutrient medium=(Growth of treatment)/(Growth of control)×100%, with controls set at 100% viability
# Tetraselmis KAS633 = test: as above
# Procedure: as §1
# Chlorella (KAS603) = test: as above
# Procedure: as §1
# algal cells = test: Trehalose preservation, evaporative drying and rehydration
# Procedure: In the experimental set, trehalose supplied from two different manufacturers (Sigma Aldrich Co.; Hayashibara Co.) is used at 0.5 M, 1.0 M, and 2.0 M each, in each of three different media (dH2O, 1M NaCl, 2.75 M NaCl algae media). In the control set, dH2O, 1 M NaCl medium, and 2.75 M NaCl medium are prepared, all lacking trehalose. The starting density of cells used for preliminary experiments is 4.59×10^5 cells/mL. The cells are spun down and re-suspended in trehalose solutions, and further equilibrate overnight at 28° C. Cells are then re-suspended in 10 mL of its corresponding medium and transferred to 25 mL canted neck tissue culture flasks (Falcon Co.). The cultures are allowed to settle and proliferate without shaking under low light (11 μE/m2/sec) for nine days. Cells are counted again to determine whether cells would multiply in each respective medium without intervening sub-culture. […] After a week of drying, all the cells are re-hydrated in 5 mL of 1M NaCl growth medium in the morning and viable cells are counted the same afternoon. […] Viability is determined by growth curves over time, by the percentage of motile cells or by the green appearance as indicative of photosynthetic activity. […]
# [1] = 0.5M trehalose in F/2, 20 weeks storage in water (no nutrients)
# [2] = 0.5M trehalose in F/2, 20 weeks storage, final/initial density
# [3] = 0.5M trehalose in F/2, 20 weeks storage, 0M control = 100%
structure (smiles),measurement,setting,value
"OC[C@H]1O[C@H](O[C@H]2O[C@H](CO)[C@@H](O)[C@H](O)[C@H]2O)[C@H](O)[C@@H](O)[C@@H]1O [trehalose, α-D-glycosyl-α-D-glycosylpyranoside]",Final density after storage and 3 weeks rejuvenation,Chlorella (KAS503); [1],6.565 × 10^7 cells/ml
same,Growth,Chlorella (KAS503); [2],2.88
same,Final density after storage and 3 weeks rejuvenation,Tetraselmis KAS633; [1],2.031 × 10^6 cells/ml
same,% Viability,Tetraselmis KAS633; [3],(93%)
same,Growth,Tetraselmis KAS633; [2],0.14
same,Final density after storage and 3 weeks rejuvenation,Chlorella (KAS603); [1],2.246 × 10^7 cells/ml
same,% Viability,Chlorella (KAS603); [3],(193%)
same,Growth,Chlorella (KAS603); [2],0.81
same,Cell appearance of preserved samples versus controls,"algal cells; after rehydration, light microscope",No significant differences in cell appearance
same,Cell viability after a week of drying and re-hydration,"algal cells; in 1M NaCl growth medium, compared with Sigma trehalose and other media",best preserved
